In patent US20160257930A1, “NEURONAL STEM CELL DIFFERENTIATION” (priority 2013, published 2016):
Entries after “also recorded” stand apart in the source; their conditions may differ. Where two headings read alike, the source gives them in different places.

Assays:
Type in all cases: cell-based, human
hPSC-derived neurons = assay: Fura-2 Ca2+ imaging; conditions: 15 s; for intracellular Ca2+ response to glutamate receptor agonists: 100 micromolar agonist (NMDA plus 10 micromolar glycine)
Method: A. Exemplar time-course of Fura 2 fluorescence recording of intracellular Ca^2+ concentration in a neuron derived from hPSCs differentiated using the protocol. At each arrow, the cell was exposed sequentially for 15 s to the following solutions: ECS with high potassium chloride concentration (50 mM, isoosmotically replacing NaCl) to evoke a cell depolarization; […] ECS with low sodium chloride concentration (15 mM final, isoosmotically replaced by sodium isethionate) with 300 microM GABA, ECS containing 100 micromolar NMDA plus 10 micromolar glycine; […] The ratiometric Ca^2+ sensitive dye Fura-2-AM (Molecular Probes, Eugene, Oreg., USA) was used for Ca^2+ imaging experiments. This dye was purchased as a dry powder in 50 μg aliquots. Before use, these aliquots were dissolved in 50 μl DMSO (Sigma) by vortex. They were then incubated at 37° C. for 1 h to ensure the dye was fully dissolved. 1 μl of the 1 mg/ml Fura-2-AM stock was added to 250 μl of normal cell growth media and mixed. Cells on glass coverslips were then added to the well and incubated for 30 min at 37° C. and 5% CO2 in a humidified tissue culture incubator. Both stocks and media containing the dye were stored out of direct light to prevent photo-bleaching of the dye. This incubation allowed for Fura-2-AM to be taken up by the cells, cleaved and turned into the active dye Fura-2. Fura-2-loaded cells were placed in a specialised perfusion chamber, designed to allow direct access of the microscope oil-immersion lens with the bottom of the coverslip, mounted upon an Olympus IX71 equipped with a Cairn monochromator-based fluorescence system (Cairn Instruments, Faversham, UK) and were continuously superfused with ECS. Imaging was performed at room temperature. Fura-2 was alternately excited using fluorescence light emitted from the monochromator at 340 and 380 nm. Images at 510 nm were acquired at 0.33 or 0.2 Hz by a slow-scan CCD camera (Kinetic Imaging Ltd, Nottingham, UK). Solutions, agonists and antagonists were locally applied to the cells using the gravity-driven rapid solution changer. Raw data, in the form of emission intensities at 510 nm, during alternate excitation at 340 or 380 nm, were recorded and stored. Following background subtraction, emission ratios (340/380) were calculated off-line using Microsoft Office Excel (Microsoft, Redmond, Wash., US). Where indicated, data were normalised to the first 10 frames to allow further analysis and for comparisons.

iPS-derived neurons = assay: Whole-cell patch-clamp, current clamp: spontaneous action potentials and resting Vm
Excerpt: Ag/AgCl electrodes for patch-clamp were produced by leaving pure silver wire in bleach overnight. An Ag/AgCl pellet (Clark Electromedical Instruments) connected to the patch-clamp headstage was used as the bath (reference) electrode. Thin-walled, filamented, borosilicate glass tubes (World-Precision Instruments, UK) were pulled using a two-stage pipette puller (PP-830, Narishige, Japan) to give patch pipettes with a measured tip resistance of 3-6 MΩ when filled with the internal pipette solution. These pipettes were used to establish whole-cell configuration of the patch clamp technique.
Whole-cell patch-clamp was performed at room temperature. Plated down cells grown on glass coverslips were transferred into a perfusion chamber mounted on the stage of an inverted microscope equipped with phase-contrast optics mounted inside a Faraday cage on an anti-vibration air table (Wentworth Laboratories Ltd., Oxford, UK). Continuous perfusion of the cells with ECS was maintained by a gravity-fed system using a 50 mL disposable syringe as a reservoir. Continuous perfusion was maintained at a rate of approximately 2-4 ml per minute. A gravity-fed rapid solution changer (RSC, RSC-200, Bio-Logic, France) was used to apply various solutions directly to the cells when required allowing for solution changes as fast as 20 ms. Waste solution was removed via vacuum suction through a flame-pulled glass tube connected to a waste Buchner flask with Tygon tubing.
Current-clamp was used to apply current protocols, generated using Axon Laboratory's pClamp 9 software to the patched cell. These were recorded on-line for further analysis using the pClamp software. Offline data review and analysis was performed using Axon Laboratory's Clampfit 9, Microsoft Office Excel and Prism6. Spontaneous action potentials (sAPs): Cells were held in current clamp with zero current injection for recording of resting membrane potentials (Vm) and observation of any spontaneous action potentials. Recordings were made using the ‘Gap free’ protocol immediately after whole-cell access to reduce the effect of the pipette ICS dialysing with the actual cytosolic solution and thus influencing the resting membrane potential. Recordings were made for approx. 60 s for a mean calculation of Vm and to allow for spontaneous action potentials to be recorded.
Data from the current step protocols were analysed in Clampfit and exported to Excel for further processing. The average Vm during a 60 s ‘Gap Free’ recording in current clamp was taken as the resting membrane potential. In cells displaying spontaneous activity, an estimation of the baseline was made from the trace.

neural progenitors = assay: Cyquant cell proliferation assay; conditions: increasing concentrations; assayed after 3, 6, 9 and 12 days of culture
Method: Cell proliferation in cultures treated with cell cycle and Notch pathway inhibitors were measured using the Cyquant™ Direct Cell Proliferation kit (Invitrogen). Briefly, 1×10^4 neural progenitors were plated per well in black, clear-bottomed 96 well plates (Nunclon) pre-treated with matrigel and cultured in ADF medium supplemented with B27 and small molecule inhibitors such as PD0332991 or DAPT (FIG. 2). Plates were processed according to the manufacturer's instructions and fluorescence Cyquant measurements were taken from triplicate cells on days 3, 6, 9 and 12 of culture using a FLUOstar Optima™ plate reader (BMG Labtech) using FITC (480 nm excitation/535 nm emission) filters in a bottom read fluorescence mode. Each measurement was calibrated by using blank suppression dye as a blank to remove background fluorescence.

[1] = test system: neural progenitor cultures; assay: Ki67 immunocytochemistry of neural progenitor cultures; conditions: for Ki67 immunoreactivity: 2 μM PD0332991 or 10 μM DAPT, 3 and 7 days after plating
Method: Cells grown on coverslips as described above were fixed with 4% paraformaldehyde at room temperature for 15 minutes. Cells were permeabilised (0.1% Triton X-100 in phosphate buffered saline) for 20 minutes at room temperature, then blocked in blocking solution (2% normal goat serum, 3% bovine serum albumin, 0.1% Triton X-100 in phosphate buffered saline for one hour. Cells were incubated with primary antibodies (rabbit anti-FOXG1, mouse anti-Sox2 (Abcam), mouse anti-ZOI (Abcam), mouse anti-Nestin (Abcam) anti-KI67 (Sigma) and anti-βIII-Tubulin (Sigma) diluted in the same buffer overnight at 4° C. Coverslips were then washed in 0.1% Triton X-100 in phosphate buffered saline 3 times for 5 minutes each and incubated with secondary antibodies (Goat anti-rabbit alexa 594 or Goat anti-mouse 488 secondary antibodies (1:400, Sigma), as appropriate diluted in blocking buffer. Coverslips were washed as above, mounted onto slides using Vectashield with DAPI and imaged using a Olympus BX61 fluorescence microscope.

[2] = 1.8 mM Ca2+ or 300 μM GABA vs control medium (0.6 mM Ca2+), weeks 1 and 2

For Cc1o[nH]c(=O)c1CC(N)C(=O)O (stereo not drawn) [AMPA], the “intracellular Ca2+ response to glutamate receptor agonists” value (hPSC-derived neurons) was “all cells responded similarly”.

For [Ca+2].[Cl-].[Cl-] [Ca^2+, Calcium Chloride], the “mean resting Vm” value (iPS-derived neurons) was “significant hyperpolarisation of mean resting Vm; also recorded: hyperpolarized the Vm” and the “proportion of cells generating spontaneous activity” value (iPS-derived neurons) was “enhancement in the proportion of cells generating spontaneous activity; also recorded: increase in spontaneous activity; also recorded: partially mimic the effects of ACM”.

In the case of C[C@H](NC(=O)Cc1cc(F)cc(F)c1)C(=O)N[C@H](C(=O)OC(C)(C)C)c1ccccc1 [DAPT, N-[N-(3,5-Difluorophenacetyl)-L-alanyl]-S-phenylglycine t-butyl ester], the “cell proliferation (relative Cyquant fluorescence, proportional to cell number)” value (neural progenitors) is reported as “reduces cell proliferation; also recorded: inhibit neural progenitor proliferation”, the Ki67 immunoreactivity [1] is reported as “more progressive loss of Ki67 immunostaining” and the “synchronisation of cell cycle exit and differentiation” value ([1]; DAPT treatment alone) is reported as “insufficient to synchronise cell cycle exit and differentiation”.

For NCCCC(=O)O [GABA, γ-aminobutyric acid], the “rescue of Vm” value (iPS-derived neurons) was “evoked a hyperpolarisation”, the “mean resting Vm” value (iPS-derived neurons; [2]) was “as effective as the increased extracellular Ca^2+” and the “proportion of cells generating spontaneous activity” value (iPS-derived neurons; [2]) was “as effective as the increased extracellular Ca^2+; also recorded: partially mimic the effects of ACM”. The “intracellular Ca2+ response to GABA in high chloride” value (hPSC-derived neurons; 300 microM GABA in ECS) was “all neurons responded to GABA in high chloride” and the “intracellular Ca2+ response to GABA in low chloride” value (hPSC-derived neurons; 300 microM GABA, low chloride ECS) was “few cells responded to GABA in low chloride”.

For CN[C@H](CC(=O)O)C(=O)O [NDMA], the “intracellular Ca2+ response to glutamate receptor agonists” value (hPSC-derived neurons) was “all cells responded similarly”.

With CC(=O)c1c(C)c2cnc(Nc3ccc(N4CCNCC4)cn3)nc2n(C2CCCC2)c1=O [PD0332991] the “cell proliferation (relative Cyquant fluorescence, proportional to cell number)” value (neural progenitors) was “concentration-dependent growth arrest; also recorded: inhibit neural progenitor proliferation” and the Ki67 immunoreactivity [1] was “complete loss of Ki67 immunopositive cells”.

In the case of SNX-482, the “ACM-evoked hyperpolarization (mean Vm)” value (iPS-derived neurons) is reported as “abolished”.
